Values quoted from earlier work as cited in US10485768B2, “Treatment for glioblastoma” (SignPath Pharma Inc., priority 2015, dated 2019).

Experiments:
C6 implant rat glioma = C6 implant rat glioma model
human glioma U87 cells = conditions: U87 cells xenografted into athymic mice
[1] = test system: human primary and recurrent GBM cell lines

For `COc1cc(/C=C/C(=O)CC(=O)/C=C/c2ccc(O)c(OC)c2)ccc1O` [Curcumin, diferuloylmethane], the brain tumor volume (C6 implant rat glioma) is given as “reduction in brain tumor volume”, the “growth of xenografted tumor cells” value (human glioma U87 cells) is given as “suppress growth” and the cell growth [1] is given as “reduced cell growth”.
